37 compounds from patent publication US4382889A, “Epoxysuccinic acid derivatives” (Taisho Pharmaceutical Co., Ltd., priority 1979, dated 1983) can be followed below.

This test has as its target T1, papain (Carica papaya, UniProt P00784).
T1 construct: purchased Sigma Chem. Co
T1 sequence (P00784 134-345): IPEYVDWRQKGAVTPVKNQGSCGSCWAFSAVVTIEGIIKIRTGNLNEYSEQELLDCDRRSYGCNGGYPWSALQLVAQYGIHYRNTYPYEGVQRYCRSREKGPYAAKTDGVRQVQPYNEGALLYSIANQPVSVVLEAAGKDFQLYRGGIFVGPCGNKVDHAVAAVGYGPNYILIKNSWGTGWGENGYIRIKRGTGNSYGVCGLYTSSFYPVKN
The test is described as follows: Papain inhibitory activity (method of K. Hanada et al). The note with it: papain 80 ug/ml, Sigma, 2 x cry. The test is classed as biochemical. As for the experimental part: Papain inhibitory activity of the compounds of the present invention was assayed by the method of K. Hanada et al, [Argric. Biol. Chem., 42, No. 3, 523(1978)] using papain (80 ug/ml, Sigma Chem. Co., 2 x cry.).

Molecules are shown by their SMILES.

As to `CCOC(=O)C1OC1C(=O)N[C@@H](CC(C)C)C(=O)NC1CCCCC1` (mixture of isomers) [Compound 1, N-[N'-(DL-3-trans-ethoxycarbonyloxirane-2-carbonyl)-L-leucyl]cyclohexylamine], the “Papain ID50 (amount of inhibitor for 50% inhibition)” value stood at 0.439 µg. With `CCCCCCCCCCNC(=O)[C@H](CC(C)C)NC(=O)C1OC1C(=O)OCC` (mixture of isomers) [Compound 2, N-[N'-(DL-3-trans-ethoxycarbonyloxirane-2-carbonyl)-L-leucyl]-n-decylamine] the figure was 0.227 µg.

Take `CCOC(=O)C1OC1C(=O)N[C@@H](CC(C)C)C(=O)N1CCCC1` (mixture of isomers) [Compound 3, N-[N'-(DL-3-trans-ethoxycarbonyloxirane-2-carbonyl)-L-leucyl]pyrrolidine]: the “Papain ID50 (amount of inhibitor for 50% inhibition)” value was 1.10 µg. `CCOC(=O)C1OC1C(=O)N[C@@H](CC(C)C)C(=O)N1CCCCC1` (mixture of isomers) [Compound 4, N-[N'-(DL-3-trans-ethoxycarbonyloxirane-2-carbonyl)-L-leucyl]piperidine]: the “Papain ID50 (amount of inhibitor for 50% inhibition)” value came to 0.417 µg. Take `CC(C)C[C@H](NC(=O)C1OC1C(=O)OCc1ccccc1)C(=O)N(C)c1ccccc1` (mixture of isomers) [Compound 10, N-[N'-(DL-3-trans-benzyloxycarbonyloxirane-2-carbonyl)-L-leucyl]-N-methylaniline]: the “Papain ID50 (amount of inhibitor for 50% inhibition)” value stood at 0.510 µg. Turning to `CC(C)C[C@H](NC(=O)C1OC1C(=O)OCc1ccccc1)C(=O)N(C)C` (mixture of isomers) [Compound 11, N-[N'-(DL-3-trans-benzyloxycarbonyloxirane-2-carbonyl)-L-leucyl]dimethylamine], the “Papain ID50 (amount of inhibitor for 50% inhibition)” value is 0.184 µg.

Take `CC(C)C[C@H](NC(=O)C1OC1C(=O)OC1CCCCC1)C(=O)NC1CCCCC1` (mixture of isomers) [Compound 13, N-[N'-(DL-3-trans-cyclohexyloxycarbonyloxirane-2-carbonyl)-L-leucyl]cyclohexylamine]: the “Papain ID50 (amount of inhibitor for 50% inhibition)” value was 0.255 µg. Turning to `CC(C)C[C@H](NC(=O)C1OC1C(=O)OC1CCCC1)C(=O)NC1CCCC1` (mixture of isomers) [Compound 14, N-[N'-(DL-3-trans-cycloentyloxycarbonyl)-L-leucyl]cyclopentylamine], the “Papain ID50 (amount of inhibitor for 50% inhibition)” value worked out at 0.187 µg.

`CC(C)C[C@H](NC(=O)C1OC1C(=O)OCc1ccccc1)C(=O)N[C@@H](CC(C)C)C(=O)OCc1ccccc1` (mixture of isomers) [Compound 17, N-(DL-3-trans-benzyloxycarbonyloxirane-2-carbonyl)-L-leucyl-L-leucine benzyl ester]: the “Papain ID50 (amount of inhibitor for 50% inhibition)” value worked out at 0.255 µg. As for `CCOC(=O)C1OC1C(=O)N[C@@H](Cc1ccccc1)C(=O)N[C@@H](Cc1ccccc1)C(=O)OC` (mixture of isomers) [Compound 18, N-(DL-3-trans-ethoxycarbonyloxirane-2-carbonyl-L-phenylalanyl-L-phenylalaninemethyl ester], the figure is 29.07 µg; as for `COC(=O)CC[C@H](NC(=O)[C@H](CC(C)C)NC(=O)C1OC1C(=O)OCc1ccccc1)C(=O)OC` (mixture of isomers) [Compound 20, N-(DL-3-trans-benzyloxycarbonyloxirane-2-carbonyl)-L-leucyl-L-gluamic acid dimethyl ester], 0.255 µg.

On to `CC[C@H](C)[C@H](NC(=O)[C@H](CC(C)C)NC(=O)C1OC1C(=O)OCc1ccccc1)C(=O)OC` (mixture of isomers) [Compound 21, N-(DL-3 trans-benzyloxycarbonyloxirane-2-carbonyl)-L-leucyl-L-isoleucine methyl ester], for which the “Papain ID50 (amount of inhibitor for 50% inhibition)” value was 0.169 µg. As for `COC(=O)[C@H](CC(C)C)NC(=O)[C@@H](CC(C)C)NC(=O)C1OC1C(=O)OCc1ccccc1` (mixture of isomers) [Compound 22, N-(DL-3-trans-benzyloxycarbonyloxirane-2-carbonyl)-D-leucyl-L-leucine methyl ester], the figure is 8.28 µg; as for `COC(=O)[C@@H](CC(C)C)NC(=O)[C@H](CC(C)C)NC(=O)C1OC1C(=O)OCc1ccccc1` (mixture of isomers) [Compound 23, N-(DL-3-trans-benzyloxycarbonyloxirane-2-carbonyl)-L-leucyl-D-leucine methyl ester], 0.221 µg. With `COC(=O)[C@H](CCCN=C(N)N[N+](=O)[O-])NC(=O)[C@H](CC(C)C)NC(=O)C1OC1C(=O)OCc1ccccc1` (mixture of isomers) [Compound 26, N-(DL-3-trans-benzyloxycarbonyloxirane-2-carbonyl)-L-leucyl-N^G -nitro-L-arginine methyl ester] the figure was 0.139 µg; with `CC(C)C[C@H](NC(=O)C1OC1C(=O)O)C(=O)N[C@@H](CCCN)C(=O)O` (mixture of isomers) [Compound 44, N-(DL-3-trans-carboxyoxirane-2-carbonyl)-L-leucyl-L-ornithine], 0.250 µg; with `COC(=O)[C@@H]1CCCN1C(=O)[C@H](CC(C)C)NC(=O)C1OC1C(=O)O` (mixture of isomers) [Compound 46, N-(DL-3-trans-carboxyoxirane-2-carbonyl)-L-leucyl-L-proline methyl ester], 0.105 µg. Take `COC(=O)CC[C@H](NC(=O)[C@H](CC(C)C)NC(=O)C1OC1C(=O)O)C(=O)OC` (mixture of isomers) [Compound 47, N-(DL-3-transcarboxyoxirane-2-carbonyl)-L-leucyl-L-glutamic acid dimethyl ester]: the “Papain ID50 (amount of inhibitor for 50% inhibition)” value was found to be 0.260 µg.

Consider `CC(C)C[C@H](NC(=O)C1OC1C(=O)O)C(=O)N[C@@H](CC(C)C)C(=O)OCc1ccccc1` (mixture of isomers) [Compound 48, N-(DL-3-trans-carboxyoxirane-2-carbonyl)-L-leucyl-L-leucine benzyl ester], for which the “Papain ID50 (amount of inhibitor for 50% inhibition)” value stood at 0.215 µg. As for `CCOC(=O)C1OC1C(=O)N[C@@H](CC(C)C)C(=O)NC1CC1` (stereo partly shown) [Compound 5], the figure is 0.284 µg.

In the case of `CCOC(=O)C1OC1C(=O)N[C@@H](CC(C)C)C(=O)NC1CCCC1` (stereo partly shown) [Compound 6], the “Papain ID50 (amount of inhibitor for 50% inhibition)” value came to 0.410 µg. Consider `CCOC(=O)C1OC1C(=O)N[C@@H](CC(C)C)C(=O)NCCC(C)C` (stereo partly shown) [Compound 7], for which the “Papain ID50 (amount of inhibitor for 50% inhibition)” value came to 0.410 µg. As for `CCOC(=O)C1OC1C(=O)N[C@@H](CC(C)C)C(=O)NCCc1ccccc1` (stereo partly shown) [Compound 8], the figure is 0.446 µg; as for `CCCNC(=O)[C@H](CC(C)C)NC(=O)C1OC1C(=O)OCC` (stereo partly shown) [Compound 9], 0.313 µg. As for `COC(=O)[C@@H](CC(C)C)NC(=O)[C@H](CC(C)C)NC(=O)[C@@H]1O[C@H]1C(=O)OCc1ccccc1` [Compound 24, N-(D-3-trans-benzyloxycarbonyloxirane-2-carbonyl)-L-leucyl-D-leucine methyl ester], the figure is 0.219 µg; as for `COC(=O)[C@@H](CC(C)C)NC(=O)[C@H](CC(C)C)NC(=O)[C@H]1O[C@@H]1C(=O)OCc1ccccc1` [Compound 25, N-(L-3-trans-benzyloxycarbonyloxirane-2-carbonyl)-L-leucyl-D-leucine methyl ester], 0.223 µg. As for `COC(=O)[C@H](CCSC)NC(=O)[C@H](CC(C)C)NC(=O)C1OC1C(=O)OCc1ccccc1` (stereo partly shown) [Compound 27], the figure is 0.216 µg; as for `COC(=O)C1OC1C(=O)N[C@@H](CC(C)C)C(=O)N[C@@H](CCSC)C(=O)OC` (stereo partly shown) [Compound 28], 0.156 µg; as for `COC(=O)[C@@H](NC(=O)[C@H](CC(C)C)NC(=O)C1OC1C(=O)OCc1ccccc1)[C@@H](C)O` (stereo partly shown) [Compound 29], 0.35 µg.

On to `CCOC(=O)[C@H](Cc1ccccc1)NC(=O)[C@H](CC(C)C)NC(=O)C1OC1C(=O)OCc1ccccc1` (stereo partly shown) [Compound 31], for which the “Papain ID50 (amount of inhibitor for 50% inhibition)” value was found to be 0.375 µg. `COC(=O)[C@H](CC(C)C)NC(=O)[C@H](CC(C)C)NC(=O)C1OC1C(=O)OCc1ccccc1` (stereo partly shown) [Compound 32]: the “Papain ID50 (amount of inhibitor for 50% inhibition)” value came to 0.227 µg. With `COC(=O)[C@@H](CC(C)C)NC(=O)[C@@H](CC(C)C)NC(=O)C1OC1C(=O)OCc1ccccc1` (stereo partly shown) [Compound 33] the figure was 0.255 µg; with `CC(C)C[C@H](NC(=O)[C@H](CC(C)C)NC(=O)C1OC1C(=O)OCc1ccccc1)C(N)=O` (stereo partly shown) [Compound 34], 0.298 µg; with `CCOC(=O)C1OC1C(=O)N[C@@H](CC(C)C)C(=O)N[C@@H](CC(C)C)C(=O)N(C)C` (stereo partly shown) [Compound 35], 0.212 µg. For the compound `COC(=O)[C@H](Cc1ccccc1)NC(=O)[C@H](Cc1ccccc1)NC(=O)C1OC1C(=O)OCc1ccccc1` (stereo partly shown) [Compound 37], the “Papain ID50 (amount of inhibitor for 50% inhibition)” value was 2.50 µg.

Take `CCC(C)[C@H](NC(=O)C1OC1C(=O)OCc1ccccc1)C(=O)N[C@@H](Cc1c[nH]c2ccccc12)C(=O)OC` (stereo partly shown) [Compound 38]: the “Papain ID50 (amount of inhibitor for 50% inhibition)” value was 0.305 µg. With `CCC(C)[C@H](NC(=O)C1OC1C(=O)OCc1ccccc1)C(=O)N[C@@H](Cc1ccc(O)cc1)C(=O)OC` (stereo partly shown) [Compound 39] the figure was 0.408 µg.
